The values that follow come from patent US8470830B2, “5-(heterocyclyl)alkyl-N-(arylsulfonyl)indole compounds and their use as 5-HT6 ligands” (Suven Life Sciences Limited, priority 2007, dated 2013).

Structures can show the parent of a compound that is named as a salt. Where two headings read alike, the source gives them in different places.

One data set deals with T1, Human 5-HT6 Receptor (Homo sapiens, UniProt P50406).
T1 construct: expressed in transfected cells; host or cells: HEK293
As to the kind of experiment: Binding assay for human 5-HT6 receptor ([3H]LSD radioligand). As to the method: Compounds can be tested according to the following the procedures.
Receptor source: Human recombinant expressed in HEK293 cells
Radioligand [^3H]LSD (60-80 Ci/mmol)
Non-specific determinant: Methiothepin mesylate—[0.1 μM]
Reference compound: Methiothepin mesylate
Positive control: Methiothepin mesylate
Reactions were carried out in […] TRIS-HCl (pH 7.4) containing 10 μM MgCl2, 0.5 mM EDTA for 60 minutes at 37° C. The reaction was terminated by rapid vacuum filtration onto glass fiber filters. Radioactivity trapped onto the filters was determined and compared to control values in order to ascertain any interactions of test compound(s) with the cloned serotonin 5-HT6 binding site.
Literature Reference: Monsma F. J. Jr., et al., Molecular Cloning and Expression of Novel Serotonin Receptor with High Affinity for Tricyclic Psychotropic Drugs.

Data set [1] deals with animal models for schizophrenia. To be noted: literature (Pouzet et al. 2002); cited from earlier work.
The subject of a further data set is 5-HT6 receptor. Particulars: literature; cited from earlier work.
The mark [2] stands for this setting: human recombinant receptor in HEK293 cells, [3H]LSD 1.5 nM, 60 minutes at 37° C., read-out: Radio-ligand binding data at 5-HT6 (h) Ki.

T1 sequence (P50406 whole entry): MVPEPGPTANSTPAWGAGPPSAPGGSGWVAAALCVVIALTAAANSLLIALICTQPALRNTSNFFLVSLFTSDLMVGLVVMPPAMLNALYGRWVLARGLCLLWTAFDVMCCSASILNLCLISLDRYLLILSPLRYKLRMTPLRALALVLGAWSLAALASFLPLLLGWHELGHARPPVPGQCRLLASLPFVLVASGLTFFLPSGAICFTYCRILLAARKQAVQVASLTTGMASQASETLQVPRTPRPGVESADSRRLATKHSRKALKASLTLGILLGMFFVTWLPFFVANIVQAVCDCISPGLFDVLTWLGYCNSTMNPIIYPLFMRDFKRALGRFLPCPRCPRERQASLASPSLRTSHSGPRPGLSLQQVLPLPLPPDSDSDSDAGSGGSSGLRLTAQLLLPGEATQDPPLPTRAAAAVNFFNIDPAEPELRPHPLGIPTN

One may read the melting point as the temperature of the solid-liquid transition. On to `CCN1CCN(Cc2ccc3c(ccn3S(=O)(=O)c3ccc(Br)cc3)c2)CC1.Cl.Cl`, for which the melting point is 264.5 to 267 °C.
Turning to `CCN1CCN(Cc2ccc3c(ccn3S(=O)(=O)c3cccc(C(F)(F)F)c3)c2)CC1.Cl.Cl`, the melting point is 265 to 270 °C.
`CCN1CCN(Cc2ccc3c(ccn3S(=O)(=O)c3ccc(C)cc3)c2)CC1.Cl.Cl`: the melting point was 263 to 267 °C.
Same read-out and setting: next, `CCN1CCN(Cc2ccc3c(ccn3S(=O)(=O)c3ccccc3)c2)CC1.Cl.Cl`: 266 to 270.5 °C; `CCN1CCN(Cc2ccc3c(ccn3S(=O)(=O)c3ccc(Cl)cc3)c2)CC1.Cl.Cl`: 265 to 269 °C.
`CCN1CCN(Cc2ccc3c(ccn3S(=O)(=O)c3ccc(OC)cc3)c2)CC1.Cl.Cl` came in with a melting point of 254 to 258 °C.
Still for that read-out and setting: next, `CN1CCN(Cc2ccc3c(c2)c(Cl)cn3S(=O)(=O)c2cc(C(F)(F)F)ccc2Cl)CC1` (as salt: hydrochloride) [Compound 27, 1-(2-Chloro-5-trifluoromethylbenznesulfonyl)-3-chloro-5-(4-methylpiperazin-1-ylmethyl)-1H-indole dihydrochloride]: 287 to 290 °C.
The Ki is a dissociation constant, usually derived from enzyme kinetics or from competition with a known ligand. `CN1CCN(Cc2ccc3c(ccn3S(=O)(=O)c3ccccc3)c2)CC1.Cl.Cl` [Compound 1, 1-Benzenesulfonyl-5-(4-methylpiperazin-1-ylmethyl)-1H-indole dihydrochloride]: the melting point fell in the range of 266 to 270.5 °C. Further, at Human 5-HT6 Receptor (setting [2]), the Ki worked out at 3.83 nM.
As to `CN1CCN(Cc2ccc3c(ccn3S(=O)(=O)c3ccc(F)cc3)c2)CC1` [Compound 3, 1-(4-Fluorobenzenesulfonyl)-5-(4-methylpiperazin-1-ylmethyl)-1H-indole], the Ki on Human 5-HT6 Receptor (setting [2]) came to 14.6 nM.
With `CC(C)c1ccc(S(=O)(=O)n2ccc3cc(CN4CCN(C)CC4)ccc32)cc1` [Compound 5, 1-[4-(1-Methylethyl)benzenesulfonyl]-5-(4-methylpiperazin-1-ylmethyl)-1H-indole], the Ki on Human 5-HT6 Receptor (setting [2]) amounted to 17.9 nM.
With `CCN1CCN(Cc2ccc3c(ccn3S(=O)(=O)c3ccc(F)cc3)c2)CC1.Cl.Cl` [Compound 7, 1-(4-Fluorobenzenesulfonyl)-5-(4-ethylpiperazin-1-ylmethyl)-1H-indole dihydrochloride], the melting point was in the range of 265 to 270 °C. The Ki at Human 5-HT6 Receptor (setting [2]) turned out to be 3.21 nM.
As to `CCN1CCN(Cc2ccc3c(ccn3S(=O)(=O)c3ccc(C(C)C)cc3)c2)CC1.Cl.Cl` [Compound 8, 1-[4-{1-Methylethyl)benzenesulfonyl]-5-(4-ethylpiperazin-1-ylmethyl)-1H-indole dihydrochloride], the melting point fell in the range of 258 to 261 °C. The Ki at Human 5-HT6 Receptor (setting [2]) came out at 5.81 nM.
With `CCN1CCN(Cc2ccc3c(ccn3S(=O)(=O)c3ccc(F)cc3F)c2)CC1.Cl.Cl` [Compound 10, 1-(2,4-Difluorobenzenesulfonyl)-5-(4-ethylpiperazin-1-ylmethyl)-1H-indole dihydrochloride], the melting point fell in the range of 271 to 274.5 °C. Also, the Ki at Human 5-HT6 Receptor (setting [2]) was determined as 12.4 nM.
`CCN1CCN(Cc2ccc3c(ccn3S(=O)(=O)c3cccc(Cl)c3Cl)c2)CC1.Cl.Cl` [Compound 14, 1-(2,3-Dichlorobenzenesulfonyl)-5-(4-ethylpiperazin-1-ylmethyl)-1H-indole dihydrochloride] showed a melting point of 273.5 to 277 °C. For the same molecule, at Human 5-HT6 Receptor (setting [2]), the Ki stood at 5.52 nM.
The molecule `CCN1CCN(Cc2ccc3c(ccn3S(=O)(=O)c3ccccc3Br)c2)CC1.Cl.Cl` [Compound 15, 1-(2-Bromobenzenesulfonyl)-5-(4-ethylpiperazin-1-ylmethyl)-1H-indole dihydrochloride] returned a melting point of 255.5 to 259 °C. Besides, the Ki on Human 5-HT6 Receptor (setting [2]) worked out at 2.56 nM.
As for `CN1CCN(Cc2ccc3c(ccn3S(=O)(=O)c3cc(C(F)(F)F)ccc3Cl)c2)CC1` [Compound 19, 1-(2-Chloro-5-trifluoromethylbenzenesulfonyl)-5-(4-methylpiperazin-1-ylmethyl)-1H-indole], the Ki on Human 5-HT6 Receptor (setting [2]) is 11.3 nM.
On the same count and under the same terms, next, `CN1CCN(Cc2ccc3c(ccn3S(=O)(=O)c3ccccc3Br)c2)CC1` [Compound 20, 1-(2-Bromobenzenesulfonyl)-5-(4-methylpiperazin-1-ylmethyl)-1H-indole]: 8.3 nM; `CN1CCN(Cc2ccc3c(ccn3S(=O)(=O)c3cccc(Cl)c3Cl)c2)CC1` [Compound 21, 1-(2,3-Dichlorobenzenesulfonyl)-5-(4-methylpiperazin-1-ylmethyl)-1H-indole]: 18 nM.
Take `CN1CCN(Cc2ccc3c(ccn3S(=O)(=O)c3ccc(Cl)cc3)c2)CC1` [Compound 22, 1-(4-Chlorobenzenesulfonyl)-5-(4-methylpiperazin-1-ylmethyl)-1H-indole]: at Human 5-HT6 Receptor (setting [2]), the Ki stood at 3.02 nM.
For `CN1CCN(Cc2ccc3c(c2)c(Cl)cn3S(=O)(=O)c2ccc(Cl)cc2)CC1` [Compound 24, 1-(4-Chlorobenzenesulfonyl)-3-chloro-5-(4-methylpiperazin-1-ylmethyl)-1H-indole], the melting point lay in the range of 139.2 to 140.4 °C.
`CN1CCN(Cc2ccc3c(c2)c(Cl)cn3S(=O)(=O)c2ccc(F)cc2)CC1` [Compound 25, 1-(4-Fluorobenzenesulfonyl)-3-chloro-5-(4-methylpiperazin-1-ylmethyl)-1H-indole] registered a melting point of 118.8 to 120.1 °C. The Ki at Human 5-HT6 Receptor (setting [2]) stood at 2.97 nM.
With `CN1CCN(Cc2ccc3c(c2)c(Cl)cn3S(=O)(=O)c2ccc(F)cc2F)CC1.Cl.Cl` [Compound 26, 1-(2,4-Difluorobenzenesulfonyl)-3-chloro-5-(4-methylpiperazin-1-ylmethyl)-1H-indole dihydrochloride], the melting point was in the range of 251.85 to 253 °C. For the same molecule, the inhibitory constant (Ki) at Human 5-HT6 Receptor (setting [2]) was 3.36 nM.
As for `CN1CCN(Cc2ccc3c(c2)c(Cl)cn3S(=O)(=O)c2cc(C(F)(F)F)ccc2Cl)CC1` [Compound 27, 1-(2-Chloro-5-trifluoromethylbenznesulfonyl)-3-chloro-5-(4-methylpiperazin-1-ylmethyl)-1H-indole dihydrochloride], on Human 5-HT6 Receptor (setting [2]), the Ki turned out to be 4.16 nM.
For the molecule `CC(C)Oc1c(CN2CCN(C)CC2)ccc2c1ccn2S(=O)(=O)c1ccc(F)cc1` [Compound 28, 1-(4-Fluorobenznesulfonyl)-4-isopropoxy-5-(4-methylpiperazin-1-ylmethyl)-1H-indole], the Ki on Human 5-HT6 Receptor (setting [2]) was determined as 276 nM.
Molecule `Cl.Cl.O=S(=O)(c1ccc(F)cc1)n1cc(Cl)c2cc(CN3CCNCC3)ccc21` [Compound 30, 1-(4-Fluorobenzenesulfonyl)-3-chloro-5-(piperazin-1-ylmethyl)-1H-indole dihydrochloride] gave a melting point of 254 to 259.6 °C. Also, the Ki on Human 5-HT6 Receptor (setting [2]) came to 2.58 nM.
The corresponding values for `Cl.Cl.O=S(=O)(c1ccccc1Br)n1ccc2cc(CN3CCNCC3)ccc21` [Compound 31, 1-(2-Bromobenzenesulfonyl)-5-(piperazin-1-ylmethyl)-1H-indole dihydrochloride] are 264.2 to 266.9 °C and 7.77 nM.
`Cl.Cl.O=S(=O)(c1ccc(F)cc1F)n1cc(Cl)c2cc(CN3CCNCC3)ccc21` [Compound 32, 1-(2,4-Difluorobenzenesulfonyl)-3-chloro-5-(piperazin-1-ylmethyl)-1H-indole dihydrochloride] returned a melting point of 241.5 to 246.1 °C. This molecule also registered a Ki at Human 5-HT6 Receptor of 5.77 nM.
In turn, `Cl.Cl.O=S(=O)(c1ccccc1)n1ccc2cc(CN3CCNCC3)ccc21` [Compound 33, 1-(Benzenesulfonyl)-5-(piperazin-1-ylmethyl)-1H-indole dihydrochloride] showed a melting point of 250.4 to 256.2 °C. Besides, the Ki on Human 5-HT6 Receptor (setting [2]) came out at 2.52 nM.
`CC(C)c1ccc(S(=O)(=O)n2ccc3cc(CN4CCNCC4)ccc32)cc1.Cl.Cl` [Compound 34, 1-[4-(1-Methylethyl)benzenesulfonyl]-5-(piperazin-1-ylmethyl)-1H-indole dihydrochloride] showed a melting point of 250 to 254 °C. Further, the Ki at Human 5-HT6 Receptor (setting [2]) is 14.9 nM.
Turning to `COc1ccc(NS(=O)(=O)c2sc3ccc(Cl)cc3c2C)cc1N1CCNCC1` [SB-271046, 5-Chloro-N-(4-methoxy-3-piperazin-1-ylphenyl)-3-methyl-2-benzothiophenesulfonamide], the “activity in animal tests related to positive or negative symptoms of schizophrenia” value in data set [1] is “inactive”.
With `CN(C)CCC=C1c2ccccc2CCc2ccccc21` [amitriptyline], the “affinity for the 5-HT6 receptor” value in the data set on 5-HT6 receptor is recorded as “high affinity”.
On to `CN1CCN2c3ccccc3Cc3ccccc3C2C1` (stereo not drawn) [mianserin], for which the “affinity for the 5-HT6 receptor” value in the data set with 5-HT6 receptor is “high affinity”.
